Assay results taken from patent publication US20250019387A1 (Frontier Medicines Corporation, priority 0001, published 2025).
pIC50: −log10 of the molar value.

What follows are compounds tested against KRAS G12C and cRAF (Ras-binding domain) interaction (Homo sapiens (Human), UniProt P01116, C118S/C51S/C80L/G12C) (assay: Inhibition of KRAS G12C and cRAF binding (AlphaScreen)). Details: GMPPNP-loaded KRAS G12C, 19-20 hours incubation with compound; read-out: IC50 (Inhibition of KRAS G12C and cRAF Binding).
Chain of KRAS G12C and cRAF (Ras-binding domain) interaction (P01116 other isoform, or with tags, fused parts or gaps G12C/C51S/C80L/C118S): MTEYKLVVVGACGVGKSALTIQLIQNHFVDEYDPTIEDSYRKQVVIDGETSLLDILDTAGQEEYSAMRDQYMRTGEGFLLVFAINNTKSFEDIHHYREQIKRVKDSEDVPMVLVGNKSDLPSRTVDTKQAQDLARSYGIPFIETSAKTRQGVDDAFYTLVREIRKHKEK
Summary of the method: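 IC50 values come from 4-parameter nonlinear regression of AlphaScreen signal (680 nm excitation, 570 nm emission). Compound plates sat 19-20 h at room temperature before RBD and donor/acceptor beads were added in Hepes pH 7.4 buffer with 150 mM NaCl, 5 mM MgCl2, 2% DMSO for 60-90 min; biotin-AviTag-GST replaced RBD to flag assay-technology interferers.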

Question: How did the pIC50 turn out when `CN(CC1CN(C#N)C1)c1nc(OCC23CCCN2CCC3)nc2c(F)c(-c3cccc4cccc(Cl)c34)ncc12` [Example 28, 3-(((7-(8-chloronaphthalen-1-yl)-8-fluoro-2-((tetrahydro-1H-pyrrolizin-7a(5H)-yl)methoxy)pyrido[4,3-d]pyrimidin-4-yl)(methyl)amino)methyl)azetidine-1-carbonitrile] was run?
Answer: 7.00 to 8.00

Question: `C=CC(=O)C1CCN(c2nc(OC[C@@H]3CCCN3C)nc3c2CCN(c2cccc4cccc(Cl)c24)C3)CC1` [Example 42, (S)-1-(1-(7-(8-chloronaphthalen-1-yl)-2-((1-methylpyrrolidin-2-yl)methoxy)-5,6,7,8-tetrahydropyrido[3,4-d]pyrimidin-4-yl)piperidin-4-yl)prop-2-en-1-one] was tested. Which pIC50 did it give?
Answer: 7.00 to 8.00

Question: `Cc1nccc(/C=C/C(=O)N2CCC[C@@H](Nc3nc(OC[C@@]45CCCN4C[C@H](F)C5)nc4c(F)c(-c5cccc6cccc(Cl)c56)ncc34)C2)n1` [Example 262, (E)-1-((R)-3-((7-(8-chloronaphthalen-1-yl)-8-fluoro-2-(((2R,7aS)-2-fluorotetrahydro-1H-pyrrolizin-7a(5H)-yl)methoxy)pyrido[4,3-d]pyrimidin-4-yl)amino)piperidin-1-yl)-3-(2-methylpyrimidin-4-yl)prop-2-en-1-one] was tested. Which pIC50 did it give?
Answer: 6.30 to 7.00

Question: With `COCCN1CC[C@@H]1/C=C/C(=O)N1CC[C@@H](N(C)c2nc(OC[C@@]34CCCN3C[C@H](F)C4)nc3c(F)c(-c4cccc5cccc(Cl)c45)ncc23)C1` [Example 234, (E)-1-((R)-3-((7-(8-chloronaphthalen-1-yl)-8-fluoro-2-(((2R,7aS)-2-fluorotetrahydro-1H-pyrrolizin-7a(5H)-yl)methoxy)pyrido[4,3-d]pyrimidin-4-yl)(methyl)amino)pyrrolidin-1-yl)-3-((R)-1-(2-methoxyethyl)azetidin-2-yl)prop-2-en-1-one] as the compound, how does the pIC50 read?
Answer: 7.00 to 8.00

Question: How did the pIC50 turn out when `Cc1ncc(F)c(/C=C/C(=O)N2CC[C@@H](N(C)c3nc(OC[C@@]45CCCN4C[C@H](F)C5)nc4c(F)c(-c5cccc6cccc(Cl)c56)ncc34)C2)n1` [Example 241, (E)-1-((R)-3-((7-(8-chloronaphthalen-1-yl)-8-fluoro-2-(((2R,7aS)-2-fluorotetrahydro-1H-pyrrolizin-7a(5H)-yl)methoxy)pyrido[4,3-d]pyrimidin-4-yl)(methyl)amino)pyrrolidin-1-yl)-3-(5-fluoro-2-methylpyrimidin-4-yl)prop-2-en-1-one] was run?
Answer: 6.30 to 7.00

Question: With `CN(c1nc(OCC23CCCN2CCC3)nc2c(F)c(-c3cccc4cccc(Cl)c34)ncc12)[C@@H]1CCN(C(=O)/C=C/c2nc(C3(C)CC3)no2)C1` [Example 101, (R,E)-1-(3-((7-(8-chloronaphthalen-1-yl)-8-fluoro-2-((hexahydro-1H-pyrrolizin-7a-yl)methoxy)pyrido[4,3-d]pyrimidin-4-yl)(methyl)amino)pyrrolidin-1-yl)-3-(3-(1-methylcyclopropyl)-1,2,4-oxadiazol-5-yl)prop-2-en-1-one] as the compound, how does the pIC50 read?
Answer: > 8.00

Question: With `CC(C)N1CC[C@@H]1/C=C/C(=O)N1CC[C@@H](N(C)c2nc(OC[C@@]34CCCN3C[C@H](F)C4)nc3c(F)c(-c4cccc5ccc(F)c(Cl)c45)ncc23)C1` [Example 211, (E)-1-((R)-3-((7-(8-chloro-7-fluoronaphthalen-1-yl)-8-fluoro-2-(((2R,7aS)-2-fluorotetrahydro-1H-pyrrolizin-7a(5H)-yl)methoxy)pyrido[4,3-d]pyrimidin-4-yl)(methyl)amino)pyrrolidin-1-yl)-3-((R)-1-isopropylazetidin-2-yl)prop-2-en-1-one] as the compound, how does the pIC50 read?
Answer: 7.00 to 8.00

Question: How did the pIC50 turn out when `CN(c1nc(OC[C@@]23CCCN2C[C@H](F)C3)nc2c(F)c(-c3cccc4ccc(F)c(Cl)c34)ncc12)[C@@H]1CCN(C(=O)C#CCN2CC(F)(F)C2)C1` [Example 209, 1-((R)-3-((7-(8-chloro-7-fluoronaphthalen-1-yl)-8-fluoro-2-(((2R,7aS)-2-fluorohexahydro-1H-pyrrolizin-7a-yl)methoxy)pyrido[4,3-d]pyrimidin-4-yl)(methyl)amino)pyrrolidin-1-yl)-4-(3,3-difluoroazetidin-1-yl)but-2-yn-1-one] was run?
Answer: 7.00 to 8.00

Question: How did the pIC50 turn out when `C=CC(=O)N1C[C@H](N(C)c2nc(OC[C@@]34CCCN3C[C@H](F)C4)nc3c(F)c(-c4cccc5cccc(Cl)c45)ncc23)C[C@@H]1CC#N` [Example 87, 2-((2R,4R)-1-acryloyl-4-((7-(8-chloronaphthalen-1-yl)-8-fluoro-2-(((2R,7aS)-2-fluorotetrahydro-1H-pyrrolizin-7a(5H)-yl)methoxy)pyrido[4,3-d]pyrimidin-4-yl)(methyl)amino)pyrrolidin-2-yl)acetonitrile] was run?
Answer: 6.30 to 7.00

Question: `CN1CCC[C@H]1COc1nc2c(c(N3CC[C@@H]4CN(C#N)C[C@@H]43)n1)CCN(c1cccc3cccc(Cl)c13)C2` [Example 37, (3aR,6aR)-1-(7-(8-chloronaphthalen-1-yl)-2-(((S)-1-methylpyrrolidin-2-yl)methoxy)-5,6,7,8-tetrahydropyrido[3,4-d]pyrimidin-4-yl)hexahydropyrrolo[3,4-b]pyrrole-5(1H)-carbonitrile] was tested. Which pIC50 did it give?
Answer: 6.30 to 7.00

Question: `COC(=O)/C=C/C(=O)N1CCC(N(C)c2nc(OC[C@@H]3CCCN3C)nc3c(F)c(-c4cccc5cccc(Cl)c45)ncc23)C1` (stereo partly drawn) [Example 24, methyl(E)-4-(3-((7-(8-chloronaphthalen-1-yl)-8-fluoro-2-(((S)-1-methylpyrrolidin-2-yl)methoxy)pyrido[4,3-d]pyrimidin-4-yl)(methyl)amino)pyrrolidin-1-yl)-4-oxobut-2-enoate] was tested. Which pIC50 did it give?
Answer: > 8.00

Question: How did the pIC50 turn out when `C=CC(=O)N1CC[C@@H](N(C)c2nc(OCC34CCCN3CCC4)nc3c2CCN(c2cccc4cccc(Cl)c24)C3)C1` [Example 19, (R)-1-(3-((7-(8-chloronaphthalen-1-yl)-2-((tetrahydro-1H-pyrrolizin-7a(5H)-yl)methoxy)-5,6,7,8-tetrahydropyrido[3,4-d]pyrimidin-4-yl)(methyl)amino)pyrrolidin-1-yl)prop-2-en-1-one] was run?
Answer: 7.00 to 8.00

Question: With `C=CC(=O)N1CC[C@@H](N(C)c2nc(OC[C@@]34CCCN3C[C@H](F)C4)nc3c(F)c(-c4cc(OC(F)F)cc5cccc(Cl)c45)ncc23)C1` [Example 82, 1-((R)-3-((7-(8-chloro-3-(difluoromethoxy)naphthalen-1-yl)-8-fluoro-2-(((2R,7aS)-2-fluorotetrahydro-1H-pyrrolizin-7a(5H)-yl)methoxy)pyrido[4,3-d]pyrimidin-4-yl)(methyl)amino)pyrrolidin-1-yl)prop-2-en-1-one] as the compound, how does the pIC50 read?
Answer: < 6.30

Question: `CN(c1nc(OC[C@@]23CCCN2C[C@H](F)C3)nc2c(F)c(-c3cccc4cccc(Cl)c34)ncc12)[C@@H]1CCN(C(=O)C#CC2COCCN2)C1` (stereo partly drawn) [Example 238, 1-((R)-3-((7-(8-chloronaphthalen-1-yl)-8-fluoro-2-(((2R,7aS)-2-fluorohexahydro-1H-pyrrolizin-7a-yl)methoxy)pyrido[4,3-d]pyrimidin-4-yl)(methyl)amino)pyrrolidin-1-yl)-3-(morpholin-3-yl)prop-2-yn-1-one] was tested. Which pIC50 did it give?
Answer: 7.00 to 8.00

Same assay, conditions: additional exemplary compounds; KRAS G12C and cRAF binding; read-out: RAF1 RBD IC50

Question: How did the pIC50 turn out when `CN(CCS(=O)(=O)/C=C/CC1CC1)c1nc(OC[C@@H]2CCCN2C)nc2c(F)c(-c3cccc4cccc(Cl)c34)ncc12` was run?
Answer: < 6.30

Question: How did the pIC50 turn out when `C#Cc1c(F)ccc2cccc(-c3ncc4c(N(C)[C@H]5CCN(C(=O)C=C)C5)nc(OC[C@@]56CCCN5C[C@H](F)C6)nc4c3F)c12` was run?
Answer: 6.30 to 7.00

Question: With `N#CN1CCC(N(c2nc(OC[C@@]34CCCN3C[C@H](F)C4)nc3c(F)c(-c4cccc5cccc(Cl)c45)ncc23)C2CC2)C1` (some centres unmarked) as the compound, how does the pIC50 read?
Answer: 7.00 to 8.00

Question: `C=CC(=O)N1C[C@@H](C)C[C@@H](Nc2nc(OC[C@@]34CCCN3C[C@H](F)C4)nc3c(F)c(-c4cccc5cccc(Cl)c45)ncc23)C1` was tested. Which pIC50 did it give?
Answer: < 6.30

Question: With `C=CC(=O)N1CC[C@H](Nc2nc(OC[C@@]34CCCN3C[C@H](F)C4)nc3c2CCN(c2cccc4cccc(Cl)c24)C3)C1` as the compound, how does the pIC50 read?
Answer: < 6.30

Question: `C#Cc1c(F)ccc2cccc(-c3ncc4c(N(C)[C@@H]5CCN(C(=O)/C=C/c6ccccn6)C5)nc(OC[C@@]56CCCN5C[C@H](F)C6)nc4c3F)c12` was tested. Which pIC50 did it give?
Answer: < 6.30

Question: With `CN(c1nc(OC[C@@]23CCCN2C[C@H](F)C3)nc2c(F)c(-c3cccc4ccc(F)c(Cl)c34)ncc12)[C@@H]1CCN(C(=O)/C=C/C2CNC2)C1` as the compound, how does the pIC50 read?
Answer: 6.30 to 7.00

Question: How did the pIC50 turn out when `C=CC(=O)N1C2CCC1CN(c1nc(OCC34CCCN3CCC4)nc3c1CCN(c1cccc4cccc(Cl)c14)C3)C2` was run?
Answer: < 6.30

Question: With `C=CC(=O)N1CCC(N(C)c2nc(OCC34CCCN3CCC4)nc3c2CCN(c2cccc4cccc(Cl)c24)C3)C1CC#N` (centres unmarked) as the compound, how does the pIC50 read?
Answer: < 6.30

Question: `CCOC/C=C/S(=O)(=O)CCN(C)c1nc(OC[C@@H]2CCCN2C)nc2c(F)c(-c3cccc4cccc(Cl)c34)ncc12` was tested. Which pIC50 did it give?
Answer: < 6.30

Question: How did the pIC50 turn out when `Cc1nccc(/C=C/C(=O)N2CCC3(C2)CN(c2nc(OC[C@@]45CCCN4C[C@H](F)C5)nc4c(F)c(-c5cccc6cccc(Cl)c56)ncc24)C3)n1` was run?
Answer: < 6.30

Question: How did the pIC50 turn out when `C=CC(=O)N(C)CC1CCN1c1nc(OC[C@@]23CCCN2C[C@H](F)C3)nc2c(F)c(-c3cccc4cccc(Cl)c34)ncc12` (some centres unmarked) was run?
Answer: < 6.30

Question: `C=CC(=O)CCN(C)c1nc(OC[C@@H]2CCCN2C)nc2c1CCN(c1cccc3ccccc13)C2` was tested. Which pIC50 did it give?
Answer: < 6.30

Question: With `CN(c1nc(OC[C@@]23CCCN2C[C@H](F)C3)nc2c(F)c(-c3cccc4cccc(Cl)c34)ncc12)[C@@H]1CCN(C(=O)/C=C/CN2CCCS2(=O)=O)C1` as the compound, how does the pIC50 read?
Answer: 6.30 to 7.00

Question: `CCN(C/C=C/S(=O)(=O)CCN(C)c1nc(OCC23CCCN2CCC3)nc2c1CCN(c1cccc3cccc(Cl)c13)C2)CCOC` was tested. Which pIC50 did it give?
Answer: 7.00 to 8.00

Question: With `CN(C)C/C=C/C(=O)N1CC[C@@H](N(C)c2nc(OC[C@@H]3CCCN3C)nc3c2CCN(c2cccc4cccc(Cl)c24)C3)C1` as the compound, how does the pIC50 read?
Answer: 6.30 to 7.00

Question: How did the pIC50 turn out when `N#CN1CC[C@H]2[C@@H]1CCN2c1nc(OC[C@@]23CCCN2C[C@H](F)C3)nc2c(F)c(-c3cccc4cccc(Cl)c34)ncc12` was run?
Answer: < 6.30

Question: With `C=CC(=O)N1C[C@H](N(C)c2nc(OCC34CCCN3CCC4)nc3c(F)c(-c4cccc5cccc(Cl)c45)ncc23)[C@H]1C` as the compound, how does the pIC50 read?
Answer: < 6.30
